Assay results taken from ChEMBL document CHEMBL5532697, “Imidazopyrimidine: from a relatively exotic scaffold to an evolving structural motif in drug discovery” (RSC Med Chem, 2024).
≈ marks a conversion by molar mass, not a printed value. Each block holds one compound with its values, some of them ahead of it.

What was measured:
[1] = target: Albumin (Homo sapiens, UniProt P02768); test: Inhibition of Albumin (unknown origin) denaturation at 100 uM relative to control
[2] = target: cAMP and cAMP-inhibited cGMP 3',5'-cyclic phosphodiesterase 10A (Homo sapiens, UniProt Q9Y233); test: Inhibition of full length human PDE10A incubated for 1 hr by topcount Scintillation plate reader analysis
[3] = Cytotoxicity against human HFF cells assessed as cell growth inhibition by celltiter-glo assay; assay type: toxicity, cell-based
[4] = tested on: BK polyomavirus; test: Antiviral activity against BK polyomavirus MM infected in human HFF cells assessed as reduction in viral growth incubated for 7 days; assay type: functional, organism-based; details: Betapolyomavirus hominis, 168 h
[5] = tested on: A549; test: Antiproliferative activity against human A549 cells assessed as inhibition of cell growth by MTT assay; assay type: functional, cell-based
[6] = tested on: A549; test: Antiproliferative activity against human A549 cells assessed as inhibition of cell growth incubated for 48 hrs by alamarblue staining based assay; assay type: functional; details: A549, 48 h
[7] = tested on: MCF7; test: Antiproliferative activity against human MCF7 cells assessed as inhibition of cell growth incubated for 48 hrs by alamarblue staining based assay; assay type: functional; details: MCF7, 48 h
[8] = target: Pyruvate kinase PKM (Homo sapiens, UniProt P14618); test: Inhibition of recombinant PKM2 (unknown origin)
[9] = tested on: COLO 205; test: Antiproliferative activity against human COLO 205 cells assessed as inhibition of cell growth incubated for 48 hrs by alamarblue staining based assay; assay type: functional; details: COLO 205, 48 h
[10] = tested on: Candida albicans; test: Antifungal activity against Candida albicans NCPF 400034 assessed as inhibition of fungal growth incubated for 48 hrs; assay type: functional
[11] = tested on: Kluyveromyces marxianus; test: Antifungal activity against Candida keyfer […] 410004 assessed as inhibition of fungal growth incubated for 48 hrs; assay type: functional
[12] = tested on: Cryptococcus neoformans; test: Antifungal activity against Cryptococcus neoformans NCPF 250316 assessed as inhibition of fungal growth incubated for 48 hrs; assay type: functional
[13] = tested on: Neurospora crassa; test: Antifungal activity against Neurospora crassa assessed as inhibition of fungal growth incubated for 48 hrs; assay type: functional
[14] = tested on: Kluyveromyces marxianus; test: Synergetic antifungal activity against Candida keyfer […] 410004 assessed as fractional inhibitory concentration index incubated for 24 hrs in the presence of amphotericin B by checkerboard microdilution method; assay type: functional
[15] = tested on: Aspergillus niger; test: Antifungal activity against Aspergillus niger assessed as inhibition of fungal growth incubated for 48 hrs; assay type: functional
[16] = tested on: Candida dubliniensis; test: Antifungal activity against Candida dubliniensis CD36 assessed as reduction in fungal growth incubated for 24 hrs by CLSI based assay; assay type: functional
[17] = tested on: Kluyveromyces marxianus; test: Antifungal activity against Candida kefyr assessed as reduction in fungal growth incubated for 24 hrs by CLSI based assay; assay type: functional
[18] = tested on: Nakaseomyces glabratus; test: Antifungal activity against Candida glabrata CBS138 assessed as reduction in fungal growth incubated for 24 hrs by CLSI based assay; assay type: functional
[19] = tested on: Meyerozyma guilliermondii; test: Antifungal activity against Meyerozyma guilliermondii assessed as reduction in fungal growth incubated for 24 hrs by CLSI based assay; assay type: functional
[20] = tested on: Pichia kudriavzevii; test: Antifungal activity against Candida krusei ATCC 6358 assessed as reduction in fungal growth incubated for 24 hrs by CLSI based assay; assay type: functional
[21] = tested on: Candida tropicalis; test: Antifungal activity against Candida tropicalis MYA-3404 assessed as reduction in fungal growth incubated for 24 hrs by CLSI based assay; assay type: functional
[22] = tested on: Candida albicans; test: Antifungal activity against Candida albicans ATCC 10231 assessed as reduction in fungal growth incubated for 24 hrs by CLSI based assay; assay type: functional
[23] = tested on: Aorta; test: Vasorelaxant activity in rabbit aorta assessed as inhibition of phenylephrine-induced contraction; assay type: functional, tissue-based; details: Oryctolagus cuniculus

Sequence of Pyruvate kinase PKM (P14618 whole entry): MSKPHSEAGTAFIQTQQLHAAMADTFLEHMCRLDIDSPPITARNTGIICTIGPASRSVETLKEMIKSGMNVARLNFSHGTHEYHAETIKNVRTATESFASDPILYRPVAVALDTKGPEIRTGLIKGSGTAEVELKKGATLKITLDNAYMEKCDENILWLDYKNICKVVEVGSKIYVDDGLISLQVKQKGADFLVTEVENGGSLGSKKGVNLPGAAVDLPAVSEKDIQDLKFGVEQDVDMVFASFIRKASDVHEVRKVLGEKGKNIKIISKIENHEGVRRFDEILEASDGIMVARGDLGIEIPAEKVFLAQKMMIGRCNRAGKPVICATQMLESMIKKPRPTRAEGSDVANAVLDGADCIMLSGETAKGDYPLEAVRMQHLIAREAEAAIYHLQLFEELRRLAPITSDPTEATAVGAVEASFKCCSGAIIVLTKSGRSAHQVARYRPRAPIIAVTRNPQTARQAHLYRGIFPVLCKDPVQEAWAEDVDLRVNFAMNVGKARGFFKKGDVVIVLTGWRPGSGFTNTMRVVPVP
Sequence of cAMP and cAMP-inhibited cGMP 3',5'-cyclic phosphodiesterase 10A (Q9Y233 whole entry): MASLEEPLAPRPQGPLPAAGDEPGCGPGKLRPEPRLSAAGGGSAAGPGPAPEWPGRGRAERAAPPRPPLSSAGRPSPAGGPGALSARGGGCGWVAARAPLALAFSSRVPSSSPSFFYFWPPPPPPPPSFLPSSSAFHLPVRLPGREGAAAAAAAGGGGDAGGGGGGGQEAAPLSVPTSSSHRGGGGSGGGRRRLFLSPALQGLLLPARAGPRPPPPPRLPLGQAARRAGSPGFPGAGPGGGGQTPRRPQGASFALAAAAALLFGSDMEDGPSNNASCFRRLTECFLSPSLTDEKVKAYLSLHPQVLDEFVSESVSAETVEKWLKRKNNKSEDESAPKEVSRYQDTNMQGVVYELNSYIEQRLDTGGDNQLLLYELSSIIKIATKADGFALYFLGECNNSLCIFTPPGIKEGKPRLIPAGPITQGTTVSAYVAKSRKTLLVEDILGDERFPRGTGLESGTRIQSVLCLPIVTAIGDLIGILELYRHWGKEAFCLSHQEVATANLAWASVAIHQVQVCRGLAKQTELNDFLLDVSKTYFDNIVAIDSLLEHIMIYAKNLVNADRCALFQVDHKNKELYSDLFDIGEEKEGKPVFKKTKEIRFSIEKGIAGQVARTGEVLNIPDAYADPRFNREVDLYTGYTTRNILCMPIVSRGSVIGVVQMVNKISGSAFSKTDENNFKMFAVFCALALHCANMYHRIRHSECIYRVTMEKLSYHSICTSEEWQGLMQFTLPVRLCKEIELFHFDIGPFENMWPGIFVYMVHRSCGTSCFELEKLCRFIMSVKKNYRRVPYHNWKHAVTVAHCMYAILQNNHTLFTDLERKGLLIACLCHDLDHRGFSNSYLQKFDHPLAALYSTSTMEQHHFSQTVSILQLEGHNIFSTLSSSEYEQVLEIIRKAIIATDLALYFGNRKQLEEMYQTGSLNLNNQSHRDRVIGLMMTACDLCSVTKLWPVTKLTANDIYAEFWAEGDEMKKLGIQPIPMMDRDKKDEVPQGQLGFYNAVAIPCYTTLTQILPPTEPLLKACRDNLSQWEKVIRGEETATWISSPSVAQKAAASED
Sequence of Albumin (P02768 whole entry): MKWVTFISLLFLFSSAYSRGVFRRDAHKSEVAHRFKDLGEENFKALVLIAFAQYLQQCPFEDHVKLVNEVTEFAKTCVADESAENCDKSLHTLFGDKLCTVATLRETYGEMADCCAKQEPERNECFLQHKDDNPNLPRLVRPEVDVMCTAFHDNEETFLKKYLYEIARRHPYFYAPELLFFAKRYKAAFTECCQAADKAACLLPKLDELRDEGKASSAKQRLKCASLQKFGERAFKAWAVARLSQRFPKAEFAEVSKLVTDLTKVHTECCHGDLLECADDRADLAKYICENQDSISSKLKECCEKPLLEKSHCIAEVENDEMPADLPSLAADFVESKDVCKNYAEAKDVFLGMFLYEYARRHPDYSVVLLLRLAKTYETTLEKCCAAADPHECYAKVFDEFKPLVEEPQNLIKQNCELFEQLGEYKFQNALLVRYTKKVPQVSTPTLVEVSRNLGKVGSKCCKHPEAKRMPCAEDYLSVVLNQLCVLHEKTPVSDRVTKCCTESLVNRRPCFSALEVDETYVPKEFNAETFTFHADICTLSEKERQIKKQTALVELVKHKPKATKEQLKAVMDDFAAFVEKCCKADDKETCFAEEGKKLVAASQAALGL

inhibition at 100 µM [1]: 41.7%
SMILES: Clc1ccc(-c2cn3cccnc3n2)cc1

inhibition at 100 µM [1]: 40.9%
SMILES: COc1ccc(-c2cn3cccnc3n2)cc1

inhibition at 100 µM [1]: 82.9%
SMILES: Cc1ccc(-c2cn3cccnc3n2)cc1

IC50 [2]: 0.003 µM
SMILES: Cc1c(C(=O)N2CCCC2)cnn1C(=O)Nc1ccn2cc(-c3ccccc3)nc2n1

IC50 [2]: 0.002 µM
SMILES: Cc1c(C(=O)NCc2c[nH]cn2)cnn1C(=O)Nc1ccn2cc(-c3ccccc3)nc2n1

SMILES: CS(=O)(=O)C1=CN(Cc2ccccc2)C(=O)N2CCN=C12
CC50 [3]: > 150 µM | EC50 [4]: 0.66 µM

IC50 [2]: 0.004 µM
SMILES: Cc1c(C(=O)N2CCC2)cnn1C(=O)Nc1ccn2cc(-c3ccc(Cl)s3)nc2n1

SMILES: Cc1ccc(S(=O)(=O)C2=CN(c3ccccc3)C(=O)N3CCN=C23)cc1
CC50 [3]: > 150 µM | EC50 [4]: 93 µM

IC50 [5]: 6.4 µM
SMILES: CC(=O)NC1(Cc2ccc(O)cc2)C(=O)N=C2N=CC=CN21 (centres undefined)

IC50 [6]: 26.2 µM | IC50 [7]: 12.2 µM | IC50 [8]: 0.027 µM | IC50 [9]: 64.8 µM
SMILES: COc1ccccc1N1CCN(CC(=O)c2cnc3ncccn23)CC1

IC50 [5]: 2.6 µM
SMILES: CC(=O)NC1(Cc2cccc3ccccc23)C(=O)N=C2N=CC=CN21 (centres undefined)

IC50 [6]: 28.5 µM | IC50 [7]: 13.5 µM | IC50 [8]: 0.05 µM | IC50 [9]: 73.5 µM
SMILES: O=C(CN1CCN(c2ccccc2)CC1)c1cnc2ncccn12

SMILES: c1ccc([Se]Cc2cn3cccnc3n2)cc1
MIC [10]: 36 µg/mL (≈ 125 µM) | MIC [11]: > 36 µg/mL | MIC [12]: > 36 µg/mL | MIC [13]: 18 µg/mL (≈ 62.5 µM) | fractional inhibitory concentration index (FICI) [14]: 3.6 | MIC [15]: > 36 µg/mL

IC50 [2]: 0.001 µM
SMILES: Cc1c(C(=O)NCc2cocn2)cnn1C(=O)Nc1ccn2cc(-c3ccccc3)nc2n1

IC50 [6]: 35.4 µM | IC50 [7]: 11.8 µM | IC50 [8]: 0.73 µM | IC50 [9]: 104 µM
SMILES: CC(=O)c1ccc(C(=O)N2CCN(CC(=O)c3cnc4ncccn34)CC2)cc1

MIC [16]: 0.5 µg/mL (≈ 1.94 µM) | MIC [17]: 0.125 µg/mL (≈ 0.485 µM) | MIC [18]: 1 µg/mL (≈ 3.88 µM) | MIC [19]: 0.062 µg/mL (≈ 0.241 µM) | MIC [20]: 0.5 µg/mL (≈ 1.94 µM) | MIC [21]: 0.031 µg/mL (≈ 0.12 µM) | MIC [22]: 0.25 µg/mL (≈ 0.97 µM)
SMILES: O=C(c1ccc(Cl)cc1)c1cnc2ncccn12

IC50 [6]: 37.5 µM | IC50 [7]: 12.9 µM | IC50 [8]: 0.79 µM | IC50 [9]: 28 µM
SMILES: O=C(CN1CCN(c2ccc(Cl)cc2)CC1)c1cnc2ncccn12

IC50 [5]: 2.1 µM
SMILES: CC(=O)NC1(Cc2ccc(Br)cc2)C(=O)N=C2N=CC=CN21 (centres undefined)

IC50 [23]: 1.05 µM
SMILES: Nc1cc(N)nc(-c2nc(Cc3ccccc3F)c3ncccn23)n1

MIC [16]: 0.5 µg/mL (≈ 2.07 µM) | MIC [17]: 0.125 µg/mL (≈ 0.518 µM) | MIC [18]: 0.031 µg/mL (≈ 0.129 µM) | MIC [19]: 0.25 µg/mL (≈ 1.04 µM) | MIC [20]: 0.5 µg/mL (≈ 2.07 µM) | MIC [21]: 0.25 µg/mL (≈ 1.04 µM) | MIC [22]: 0.062 µg/mL (≈ 0.257 µM)
SMILES: O=C(c1ccc(F)cc1)c1cnc2ncccn12

SMILES: Cc1ccc([Se]Cc2cn3cccnc3n2)cc1
MIC [10]: > 37.8 µg/mL | MIC [11]: 18.9 µg/mL (≈ 62.4 µM) | MIC [12]: > 36 µg/mL | MIC [13]: 18.9 µg/mL (≈ 62.4 µM) | MIC [15]: > 37.8 µg/mL

inhibition at 100 µM [1]: 96.4%
SMILES: c1ccc(-c2ccc(-c3cn4cccnc4n3)cc2)cc1

MIC [16]: 0.062 µg/mL (≈ 0.25 µM) | MIC [17]: 0.125 µg/mL (≈ 0.504 µM) | MIC [18]: 0.065 µg/mL (≈ 0.262 µM) | MIC [19]: 0.031 µg/mL (≈ 0.125 µM) | MIC [20]: 0.25 µg/mL (≈ 1.01 µM) | MIC [21]: 0.062 µg/mL (≈ 0.25 µM) | MIC [22]: 0.25 µg/mL (≈ 1.01 µM)
SMILES: N#Cc1ccc(C(=O)c2cnc3ncccn23)cc1
